Each compound was assayed against T1, human vasopressin V1b receptor (Homo sapiens, UniProt P47901) (assay: Vasopressin V1b receptor binding assay). Conditions: membranes from CHO-K1 cells with stably expressed human V1b receptors, 1.5 nM 3H-AVP displacement; with more than one stereogenic center: the diastereomer with stronger affinity.
T1 construct: expressed in transfected cells; host or cells: CHO-K1 (cell line hV1b-3H2_CHO), membrane preparation
T1 sequence (P47901 1-424): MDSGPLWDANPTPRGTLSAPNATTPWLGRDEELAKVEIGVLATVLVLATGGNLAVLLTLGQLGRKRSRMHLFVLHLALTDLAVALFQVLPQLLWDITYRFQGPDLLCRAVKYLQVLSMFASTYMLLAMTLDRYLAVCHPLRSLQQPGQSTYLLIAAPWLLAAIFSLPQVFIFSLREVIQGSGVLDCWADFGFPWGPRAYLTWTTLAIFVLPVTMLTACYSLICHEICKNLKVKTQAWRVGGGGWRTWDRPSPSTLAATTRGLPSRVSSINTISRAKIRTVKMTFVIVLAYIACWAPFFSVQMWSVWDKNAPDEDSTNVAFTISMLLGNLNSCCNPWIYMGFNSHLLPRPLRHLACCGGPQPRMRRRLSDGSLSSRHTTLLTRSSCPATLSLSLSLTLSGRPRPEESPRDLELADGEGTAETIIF
Method in brief: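 Membranes bearing human V1b receptor incubated 60 min at room temperature in 50 mM Tris, 10 mM MgCl2, 0.1% BSA, pH 7.4, 2% DMSO, triplicate.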

Compound	Ki [nM]
COc1ccc(OC)c(C2(N3CCN(c4ccncc4)CC3)C(=O)N(S(=O)(=O)c3cccc4cccnc34)c3ccc(OC)cc32)c1 (racemic) [Example 59, (±)-3-(2,5-Dimethoxyphenyl)-5-methoxy-3-(4-pyridin-4-ylpiperazin-1-yl)-1-(quinoline-8-sulfonyl)-1,3-dihydroindol-2-one]	< 10
CCOc1cc(OC)ccc1C1(N2CCC(N3CCNCC3)CC2)C(=O)N(S(=O)(=O)c2ccc(OC)cn2)c2ccc(C#N)cc21 (racemic) [Example 174, (±)-5-Cyano-3-(2-ethoxy-4-methoxy-phenyl)-1-(5-methoxy-pyridine-2-sulfonyl)-3-(4-piperazin-1-yl-piperidin-1-yl)-2,3-dihydro-1H-indol-2-one]	< 10
CCOc1ccc(OC)cc1C1(N2CCN(c3ccnc(C4CC4)c3)CC2)C(=O)N(S(=O)(=O)c2ccc(OC)c3cccnc23)c2ccc(C#N)cc21 (racemic) [Example 70, (±)-5-Cyano-3-[4-(2-cyclopropylpyridin-4-yl)piperazin-1-yl]-3-(2-ethoxy-5-methoxyphenyl)-1-(5-methoxyquinoline-8-sulfonyl)-2,3-dihydro-1H-indol-2-one]	< 10
CCOc1ccc(OC)cc1C1(N2CCN(c3ccncc3)CC2)C(=O)N(S(=O)(=O)c2ccc(OC)c3cccnc23)c2ccc(C#N)cc21 (racemic) [Example 80, (±)-5-Cyano-3-(2-ethoxy-5-methoxyphenyl)-1-(5-methoxyquinoline-8-sulfonyl)-3-(4-pyridin-4-ylpiperazin-1-yl)-2,3-dihydro-1H-indol-2-one]	< 10

The next lines start with the values.

Ki [nM]	Compound
< 10	CCOc1ccc(OC)cc1C1(N2CCN(c3ccnc(C)c3)CC2)C(=O)N(S(=O)(=O)c2ccc(OC)cn2)c2ccc(C#N)cc21 (racemic) [Example 35, (±)-5-Cyano-3-(2-ethoxy-5-methoxyphenyl)-1-(5-methoxypyridine-2-sulfonyl)-3-[4-(2-methylpyridin-4-yl)piperazin-1-yl]-2,3-dihydro-1H-indol-2-one]
< 10	CCOc1ccccc1C1(N2CCN(c3ccncc3)CC2)C(=O)N(S(=O)(=O)c2ccc(OC)cn2)c2ccc(C#N)cc21 (single isomer, unassigned; (+)) [Example 64, (+)-5-Cyano-3-(2-ethoxyphenyl)-1-(5-methoxypyridine-2-sulfonyl)-3-(4-pyridin-4-yl-piperazin-1-yl)-2,3-dihydro-1H-indol-2-one]

Reference: patent publication US8486931B2, “Substituted oxindole compounds” (Abbott GmbH & Co. KG, priority 2007, dated 2013)
